In patent publication US20170008888A1 (KYORIN PHARMACEUTICAL CO., LTD., priority 2014, published 2017):

How the values were obtained:
[1] = target: T1, BRD4 bromodomain domain I [BRD4(1)] (Homo sapiens, UniProt O60885); assay: BRD4 bromodomain domain 1 inhibition assay (TR-FRET); format: binding; conditions: for inhibition at 10 µM: screening concentration 10 μM
T1 construct: BRD4 bromodomain domain I [BRD4(1)]; purchased Cayman Chemicals
Outline: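 0.5% DMSO, in triplicate, using Cayman BRD4(1) TR-FRET protocol with slight modification. 670/620 nm ratio normalized to 10 μM JQ1, with DMSO control set as 0% inhibition.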

ABL or ARG = assay: Probe-based (AX9989) kinase profiling in Jurkat lysate: ABL or ARG; format: binding
Outline: (§1)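 Percent inhibition was derived from reduced LC/MS fragment intensities of probe-labeled peptides relative to compound-free controls. Before labeling with 5 μM AX9989, Mn2+-supplemented (20 mM) Jurkat lysate was exposed to compound for 15 min at room temperature.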

human PBMCs = assay: Human PBMC TNF-α response to endotoxin (ELISA); format: cell-based; conditions: 0.1 μg/ml LPS 16 h, read-out: EC50 for the inhibition of the human PBMC TNF-α response to endotoxin, ave. ± S.D.
Outline: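 PBMCs at 2e6 cells/ml in RPMI 1640 with 10% charcoal-dextran-treated FBS were pre-treated 1 h at 37 °C with compound (4-point 1:5 dilution from 10 μM). Stimulation with 0.1 μg/ml E. coli 0111:B4 LPS for 16 h; TNF-α measured by ELISA (A450) in 25-fold diluted supernatant.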

ERK5 = target: T2, ERK5 (Homo sapiens, UniProt Q13164); assay: Probe-based (AX9989 acyl phosphate ATP probe) kinase profiling in Jurkat lysate: ERK5; format: binding; conditions: for IC50: calculated from percent inhibition and screening concentration, Jurkat lysate, AX9989 probe; for inhibition at 1 µM: screening concentration 1 μM; for inhibition at 1 µM / inhibition at 10 µM: read-out: ERK5 Inhibition % at indicated screening concentration; for inhibition at 10 µM: screening concentration 10 μM
T2 construct: screened for activity against several kinases in Jurkat cells; endogenous in cells; host or cells: Jurkat cell lysate
T2 sequence (Q13164 whole entry): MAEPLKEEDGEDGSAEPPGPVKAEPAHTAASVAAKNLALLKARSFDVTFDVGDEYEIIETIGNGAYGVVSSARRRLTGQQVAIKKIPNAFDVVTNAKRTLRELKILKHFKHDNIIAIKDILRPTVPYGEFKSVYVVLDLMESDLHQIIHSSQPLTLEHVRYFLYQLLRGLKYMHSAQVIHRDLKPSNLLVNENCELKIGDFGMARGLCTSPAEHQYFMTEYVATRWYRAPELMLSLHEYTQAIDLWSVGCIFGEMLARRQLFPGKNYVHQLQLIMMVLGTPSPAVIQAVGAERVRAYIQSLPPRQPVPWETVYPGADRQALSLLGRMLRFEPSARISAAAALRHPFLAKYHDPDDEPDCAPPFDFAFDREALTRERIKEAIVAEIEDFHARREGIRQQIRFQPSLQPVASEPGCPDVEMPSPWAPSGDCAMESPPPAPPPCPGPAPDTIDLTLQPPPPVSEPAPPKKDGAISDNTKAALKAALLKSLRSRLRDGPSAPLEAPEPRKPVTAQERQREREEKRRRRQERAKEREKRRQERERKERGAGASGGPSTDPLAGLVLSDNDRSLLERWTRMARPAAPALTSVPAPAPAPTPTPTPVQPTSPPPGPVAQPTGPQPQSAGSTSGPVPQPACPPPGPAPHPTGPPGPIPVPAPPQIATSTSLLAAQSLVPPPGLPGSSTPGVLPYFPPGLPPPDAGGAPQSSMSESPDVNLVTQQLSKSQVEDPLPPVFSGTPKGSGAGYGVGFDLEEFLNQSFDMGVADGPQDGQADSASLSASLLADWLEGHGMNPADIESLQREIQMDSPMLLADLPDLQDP
Outline: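 ERK5 IC50 values came from percent inhibition at the screening concentration, measured as loss of LC/MS signal of probe-labelled active-site peptides. Compound was added for 15 min at room temperature to Jurkat lysate (5 mg/ml, 20 mM MnCl2) before labelling with AX9989 ATP acyl phosphate probe at 5 μM.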

AurB or AurC = assay: Probe-based (AX9989) kinase profiling in Jurkat lysate: AurB or AurC; format: binding
Outline: as §1

Compound | inhibition at 10 µM [1] | ABL or ARG Inhibition % at indicated screening concentration (ABL or ARG; screening concentration 1 μM) | EC50 (human PBMCs) | IC50 (ERK5) | inhibition at 1 µM (ERK5) | AurB or AurC Inhibition % at indicated screening concentration (AurB or AurC; screening concentration 1 μM) | inhibition at 5 µM ([1]; Screening concentration 5 μM) | ABL or ARG Inhibition % at indicated screening concentration (ABL or ARG; screening concentration 10 μM) | inhibition at 10 µM (ERK5) | AurB or AurC Inhibition % at indicated screening concentration (AurB or AurC; screening concentration 10 μM) | IC50 [1]
CCOc1cc(C(=O)N2CCC(N3CC[C@H](O)C3)CC2)ccc1Nc1cc2c(cn1)N(C)C(=O)c1ccccc1N2C [Compound T11] | > 85% | E (E is ≦35%) | 620 nM | ≤ 50 nM | > 90% | E (E is ≦35%) |  |  |  |  | 
CCOc1cc(C(=O)N2CCN(CCN(C)C)CC2)ccc1Nc1cc2c(cn1)N(C)C(=O)c1ccccc1N2C [Compound T14] | > 85% | E (E is ≦35%) | 720 ± 50 nM | ≤ 50 nM | > 90% | E (E is ≦35%) |  |  |  |  | 
CCOc1cc(C(=O)N2CCN(CCN3CCOCC3)CC2)ccc1Nc1cc2c(cn1)N(C)C(=O)c1ccccc1N2C [Compound T15] | > 85% | E (E is ≦35%) | 800 ± 270 nM | ≤ 50 nM | > 90% | E (E is ≦35%) |  |  |  |  | 
CCOc1cc(C(=O)N2CCN(C(C)=O)CC2)ccc1Nc1cc2c(cn1)N(C)C(=O)c1ccccc1N2C [Compound T18] | 70 to 85% | E (E is ≦35%) | 820 ± 100 nM | ≤ 50 nM | > 90% | E (E is ≦35%) |  |  |  |  | 
CCOc1cc(C(=O)N2CC[C@@H](N3CCN(C)CC3)C2)ccc1Nc1cc2c(cn1)N(C)C(=O)c1ccccc1N2C [Compound T20] |  | E (E is ≦35%) | 460 ± 140 nM | ≤ 50 nM | > 90% | E (E is ≦35%) | > 85% |  |  |  | 
CCOc1cc(C(=O)N2CC[C@H](C#N)C2)ccc1Nc1cc2c(cn1)N(C)C(=O)c1ccccc1N2C [Compound T22] | < 70% | E (E is ≦35%) | 820 ± 140 nM | ≤ 50 nM | > 90% | E (E is ≦35%) |  |  |  |  | 
CCOc1cc(C(=O)N2CCC(N3CCCN(C)CC3)CC2)ccc1Nc1cc2c(cn1)N(C)C(=O)c1ccccc1N2C [Compound T31] | > 85% | E (E is ≦35%) | 490 nM | ≤ 50 nM | > 90% | E (E is ≦35%) |  |  |  |  | 
CN1CCN(C2CCN(C(=O)c3ccc(Nc4cc5c(cn4)N(C)C(=O)c4ccccc4N5C)c(OCCF)c3)CC2)CC1 [Compound T34] | 70 to 85% | E (E is ≦35%) | 490 ± 40 nM | ≤ 50 nM | > 90% | E (E is ≦35%) |  |  |  |  | 
CCOc1cc(C(=O)N2CCC(NC3CCN(C)CC3)C2)ccc1Nc1cc2c(cn1)N(C)C(=O)c1ccccc1N2C (stereo not drawn) [Compound T42] | > 85% | E (E is ≦35%) | 680 ± 450 nM | 50 to 100 nM | > 90% | E (E is ≦35%) |  |  |  |  | 
CC(C)Oc1cc(C(=O)N2CCC[C@H](O)C2)ccc1Nc1cc2c(cn1)N(C)C(=O)c1ccccc1N2C [Compound T48] | 70 to 85% |  | 740 nM | 101 to 500 nM |  |  |  | E (E is ≦35%) | > 90% | E (E is ≦35%) | 
CC(C)Oc1cc(C(=O)N2CCN(C3CCN(C)CC3)CC2)ccc1Nc1cc2c(cn1)N(C)C(=O)c1ccccc1N2C [Compound T49] | > 85% | E (E is ≦35%) | 300 ± 120 nM | 50 to 100 nM | > 90% | E (E is ≦35%) |  |  |  |  | 
CC(C)Oc1cc(C(=O)N2CC[C@@H](NCCF)C2)ccc1Nc1cc2c(cn1)N(C)C(=O)c1ccccc1N2C [Compound T50] | > 85% | E (E is ≦35%) | 630 nM | 101 to 500 nM | 75 to 90% | E (E is ≦35%) |  |  |  |  | 
CCOc1cc(C(=O)N2CCN(c3cccnc3)CC2)ccc1Nc1cc2c(cn1)N(C)C(=O)c1occc1N2C [Compound T56] | 70 to 85% | E (E is ≦35%) | 300 nM | ≤ 50 nM | > 90% | E (E is ≦35%) |  |  |  |  | 
CCOc1cc(C(=O)N[C@H]2CC[C@H](O)CC2)ccc1Nc1cc2c(cn1)N(C)C(=O)c1ccccc1N2C [Compound T62] | 70 to 85% | E (E is ≦35%) | 490 ± 100 nM | 101 to 500 nM | 75 to 90% | E (E is ≦35%) |  |  |  |  | 
CCOc1cc(C(=O)N(C)[C@H]2CC[C@H](O)CC2)ccc1Nc1cc2c(cn1)N(C)C(=O)c1ccccc1N2C [Compound T64] | 70 to 85% | E (E is ≦35%) | 620 nM | 50 to 100 nM | > 90% | E (E is ≦35%) |  |  |  |  | 
CN1CCC(N2CCN(C(=O)c3ccc(Nc4cc5c(cn4)N(C)C(=O)c4ccccc4N5C)c(F)c3)CC2)CC1 [Compound T70] | < 70% | E (E is ≦35%) | 2090 nM | ≤ 50 nM | > 90% | E (E is ≦35%) |  |  |  |  | 
CN1CCC(N2CCN(C(=O)c3ccc(Nc4cc5c(cn4)N(C)C(=O)c4ccccc4N5C)c(OC(F)F)c3)CC2)CC1 [Compound T76] | 70 to 85% | E (E is ≦35%) | 1110 nM | ≤ 50 nM | > 90% | E (E is ≦35%) |  |  |  |  | 
CN1C(=O)c2c(F)cccc2Oc2cc(N[C@H]3CC[C@H](O)CC3)ncc21 [Compound T92] |  |  | 440 ± 290 nM | 101 to 500 nM |  |  |  | E (E is ≦35%) | > 90% | D (D is >35% to ≦50%) | < 2000 nM
COc1cccc2c1Oc1cc(N[C@H]3CC[C@H](O)CC3)ncc1N(C)C2=O [Compound T95] |  |  | 1380 ± 1710 nM | > 500 nM |  |  |  | E (E is ≦35%) | > 90% | E (E is ≦35%) | 2000 to 5000 nM
CN1C(=O)c2c(F)ccc(F)c2Oc2cc(N[C@H]3CC[C@H](O)CC3)ncc21 [Compound T97] |  |  | 430 ± 450 nM | > 500 nM |  |  |  | E (E is ≦35%) | > 90% | E (E is ≦35%) | 2000 to 5000 nM
